The text below walks through data of patent US9974761B2, “Medications for deposition on biological surfaces” (The Procter & Gamble Company, priority 2014, dated 2018).

In one assay the target is T1, human TRPA1 (Homo sapiens, UniProt O75762, K186N/R3C/R58T).
T1 construct: expressed in transfected cells
In words: TRPA1 Protocol-FLIPR Assay (intracellular Ca2+). The class given is cell-based. How it is done:
To determine whether TRPA1 is activated, the intracellular calcium ion (Ca^2+) level from transfected cells with the TRPA1 receptor sequence (SEQ ID NO: 2) was measured. HEK-293 cells stably transfected with human TRPA1 were grown in 15 ml growth medium (high glucose DMEM (Dulbecco's Modification of Eagle's Medium) supplemented with 10% FBS (fetal bovine serum), 100 μg/ml penicillin/streptomycin, 100 μg/ml G418) in a 75cm^2 flask for 3 days at 37° C. in a mammalian cell culture incubator set at 5% CO2. Cells were detached with addition of 10 ml of PBS (phosphate buffered saline) by hand shaking gently and transferred to a 50 ml tube and centrifuged at 850 rpm for 3 minutes to remove PBS. After centrifugation, a pellet of cells was formed in the bottom of the tube separating them from the supernatant solution. The supernatant was discarded and the cell pellet suspended in 1 ml of fresh growth medium to which 5 μl (12.5 μg) of Fluo-4 AM (Molecular Probes, Inc.) calcium indicator was added and incubated for 30 minutes with gentle shaking. At the end of the 30 minutes, 45 ml of assay buffer (1× HBSS (Hank's Balanced Salt Solution), 20 mM HEPES (4-(2-Hydroxyethyl)-1-piperazineethanesulfonic acid)) was added to wash the cells and the resulting combination was then centrifuged at 850 rpm for 3 minutes to remove excess buffer and Fluo-4 AM calcium indicator.
The pelleted cells were re-suspended in 10 ml assay buffer and 90 μll aliquots (˜50,000 cells) per well delivered to a 96-well assay was placed into a fluorometric imaging plate reader (FLIPR TETRA from Molecular Devices) and basal fluorescence recorded (excitation wave length 488 nm and emission wave length 510 nm). Then 20 μl of the test compound being tested was added and fluorescence recorded (TABLES 2 and 3).
To determine if a compound was an agonist the direct effect of a test compound was determined. If any increase in fluorescence over background was noted, then the compound was considered an agonist. The agonist activity was expressed relative to that observed with a benchmark agonist such as 50 μm allyl isothiocyanate for TRPAL

A further assay addresses T2, human TRPV1 (Homo sapiens, UniProt Q8NER1, M315I/T336M).
T2 construct: expressed in transfected cells
The assay can be described thus: TRPV1 Protocol-FLIPR Assay (intracellular Ca2+). The class given is cell-based. How it is done:
To determine whether TRPV1 was activated, the intracellular calcium ion (Ca^+2) levels from cells transfected with the TRPV1 receptor sequence (SEQ ID NO: 1) were measured. […] Cells were detached with addition of 10 ml of PBS (phosphate buffered saline) by gentle hand shaking. Cells were transferred to a 50 ml tube and centrifuged at 850 rpm for 3 minutes to remove PBS. After centrifugation, a pellet of cells formed in the bottom of the tube separating them from the supernatant solution. The supernatant was discarded and the cell pellet suspended in 1 ml of fresh growth medium to which 5 μl (12.5 μg) of Fluo-4 AM (Molecular Probes, Inc., Eugene, Oreg.) calcium indicator was added and incubated for 30 minutes with gentle shaking. […] The pelleted cells were re-suspended in 10 ml assay buffer and 90 μl aliquots (˜50,000 cells) per well delivered to a 96-well assay plate was placed into a fluorometric imaging plate reader (FLIPR TETRA from Molecular Devices) and basal fluorescence recorded (excitation wave length 488 nm and emission wave length 510 nm). Then 20 μl of a test compound-being tested as a TRPV1 receptor agonist was added and fluorescence recorded. The observed value with compound pretreated cells was compared with buffer control; the difference between the two indicating a measure of effect of the test compound on the agonist (TABLES 2 and 3). If any increase in fluorescence over background was noted, then the compound was considered an agonist.

For assay [1] the following is noted: concentration where the cooling effect could be clearly recognized; Emberger and Hopp 1987; cited from earlier work.
The target of assay [2] is T3, human TRPM8 (UniProt Q8R4D5).
T3 construct: Receptor Activity TRPM8; Receptor Activity TRPM8; other: test compound at 0.001%; relative to WS5 control (30 microMolar); HEK 293 cells; other: test compound at 0.004%; other: test compound at 5.2E−5%; relative to WS5 control
In words: TRPM8 Protocol-FLIPR Assay (intracellular Ca2+). The class given is cell-based. How it is done:
(§1) To determine whether TRPM8 is activated, the intracellular calcium ion (Ca^2+) level was measured from transfected cells with the TRPM8 receptor sequence (SEQ ID NO: 3). HEK-293 (human embryonic kidney) cells stably transfected with human TRPM8 were grown in 15 ml growth medium (high glucose DMEM (Dulbecco's Modification of Eagle's Medium) supplemented with 10% FBS (fetal bovine serum), 100 ug/ml penicillin/streptomycin, 5 μg/ml blasticindin, and 100 μg/ml zeocin) in a 75 cm^2 flask for 3 days at 37° C. in a mammalian cell culture incubator set at 5% CO2 Cells were detached with addition of 2 ml of trypsin-EDTA buffer (GIBCO® 25200, Invitrogen, Grand Island, N.Y.) for about 2-3 min. Trypsin was inactivated by addition of 8 ml growth medium. Cells were transferred to a 50 ml tube and centrifuged at 850 rpm for 3 minutes to remove medium. After centrifugation, a pellet of cells was formed in the bottom of the tube separating them from the supernatant solution. The supernatant was discarded and the cell pellet was suspended in 1 ml of fresh growth medium to which 5 μl (12.5 μg) of Fluo-4 AM (Molecular Probes, Inc., Eugene, Oreg.) calcium indicator was added and incubated for 30 min with gentle shaking. Fluo-4 AM is a fluorescent dye used for quantifying cellular Ca^2+ concentrations in the 100 nM to 1 microM range. At the end of 30 minutes, 45 ml of assay buffer (1× HBSS (Hank's Balanced Salt Solution), 20 mM HEPES (4-(2-Hydroxyethyl)-1-piperazineethanesulfonic acid)) was added to wash cells and the resulting mixture was then centrifuged at 850 rpm for 3 minutes to remove excess buffer and Fluo-4 AM calcium indicator.
(§2) The pelleted cells were re-suspended in 10 ml assay buffer and 90 μl aliquots (˜50,000 cells) per well delivered to a 96-well assay plate containing 10 μl of test compounds (1 mM in assay buffer, […]) or buffer control and incubated at room temperature for 30 minutes. After 30 minutes, a plate was placed into a fluorometric imaging plate reader (FLIPR384 from Molecular Devices, Sunnyvale, Calif.) and basal fluorescence recorded (excitation wave length 488 nm and emission wave length 510 nm). Then 20 μl of […] of TRPM8 agonist WS5 coolant in the assay buffer was added and fluorescence recorded. For determining the direct effect of test compounds on TRPM8, fluorescence was measured immediately after addition of each compound (TABLES 2 and 3). Additional discussion of the FLIPR method can be found in Smart et al., Characterization using FLIPR of human vanilloid VR1 receptor pharmacology, European Journal of Pharmacology 417, 51-58 (2001) and Liu et al., Development and validation of a platelet calcium flux assay using a fluorescent imaging plate reader, Analytical Biochemistry 357, 216-224 (2006).
(§3) TRPM8 activation was determined by measuring intracellular calcium ion (Ca^2+) level from transfected cells with the TRPM8 receptor gene, as described in EXAMPLE 1, the results of which are shown in TABLES 4 and 5.

The nature of assay [3]: Sensation reported by panelists. The class given is in vivo. The note with it: perceived sensation, in words.
For assay [4], the system named is human TRPM8. In words: TRPM8 Protocol-FLIPR Assay (intracellular Ca2+). The class given is cell-based. The note with it: dose 30 uM. How it is done: as §1, §2, §3
Setting [5] is: test compound at 5.2E−5%, relative to Allyl Isothiocyanate control (50 microMolar), HEK 293 cells.
Setting [6] is: test compound at 5.2E−5%, relative to Capsaicin control (350 nanoMolar), HEK 293 cells.
Where [7] appears, read: test compound at 0.02%, relative to Allyl Isothiocyanate control (50 microMolar), HEK 293 cells.
[8] abbreviates: test compound at 0.02%, relative to Capsaicin control (350 nanoMolar), HEK 293 cells.

The structures appear in SMILES notation.

T2 sequence (Q8NER1 whole entry M315I/T336M): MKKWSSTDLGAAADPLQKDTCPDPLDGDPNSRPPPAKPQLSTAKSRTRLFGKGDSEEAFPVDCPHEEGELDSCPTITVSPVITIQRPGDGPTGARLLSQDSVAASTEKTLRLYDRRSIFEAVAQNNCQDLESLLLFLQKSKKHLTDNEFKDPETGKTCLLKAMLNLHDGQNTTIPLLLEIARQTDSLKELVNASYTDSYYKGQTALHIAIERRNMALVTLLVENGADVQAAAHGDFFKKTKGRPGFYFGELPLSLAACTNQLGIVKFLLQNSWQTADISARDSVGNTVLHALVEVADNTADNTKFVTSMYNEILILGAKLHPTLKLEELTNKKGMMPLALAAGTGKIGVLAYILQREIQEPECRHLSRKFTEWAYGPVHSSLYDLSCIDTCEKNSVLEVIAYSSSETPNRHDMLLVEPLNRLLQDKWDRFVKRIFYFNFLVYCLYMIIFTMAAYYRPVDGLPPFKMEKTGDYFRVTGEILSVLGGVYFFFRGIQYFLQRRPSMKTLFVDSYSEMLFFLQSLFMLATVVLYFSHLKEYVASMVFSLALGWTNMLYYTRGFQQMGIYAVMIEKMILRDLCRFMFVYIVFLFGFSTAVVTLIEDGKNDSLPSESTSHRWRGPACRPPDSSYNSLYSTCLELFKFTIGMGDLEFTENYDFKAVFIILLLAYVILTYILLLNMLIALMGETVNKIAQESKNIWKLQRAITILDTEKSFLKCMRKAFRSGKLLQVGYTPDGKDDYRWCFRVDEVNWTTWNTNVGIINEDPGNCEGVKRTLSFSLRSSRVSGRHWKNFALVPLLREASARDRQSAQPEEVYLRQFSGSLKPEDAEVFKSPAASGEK
T1 sequence (O75762 whole entry R3C/R58T/K186N): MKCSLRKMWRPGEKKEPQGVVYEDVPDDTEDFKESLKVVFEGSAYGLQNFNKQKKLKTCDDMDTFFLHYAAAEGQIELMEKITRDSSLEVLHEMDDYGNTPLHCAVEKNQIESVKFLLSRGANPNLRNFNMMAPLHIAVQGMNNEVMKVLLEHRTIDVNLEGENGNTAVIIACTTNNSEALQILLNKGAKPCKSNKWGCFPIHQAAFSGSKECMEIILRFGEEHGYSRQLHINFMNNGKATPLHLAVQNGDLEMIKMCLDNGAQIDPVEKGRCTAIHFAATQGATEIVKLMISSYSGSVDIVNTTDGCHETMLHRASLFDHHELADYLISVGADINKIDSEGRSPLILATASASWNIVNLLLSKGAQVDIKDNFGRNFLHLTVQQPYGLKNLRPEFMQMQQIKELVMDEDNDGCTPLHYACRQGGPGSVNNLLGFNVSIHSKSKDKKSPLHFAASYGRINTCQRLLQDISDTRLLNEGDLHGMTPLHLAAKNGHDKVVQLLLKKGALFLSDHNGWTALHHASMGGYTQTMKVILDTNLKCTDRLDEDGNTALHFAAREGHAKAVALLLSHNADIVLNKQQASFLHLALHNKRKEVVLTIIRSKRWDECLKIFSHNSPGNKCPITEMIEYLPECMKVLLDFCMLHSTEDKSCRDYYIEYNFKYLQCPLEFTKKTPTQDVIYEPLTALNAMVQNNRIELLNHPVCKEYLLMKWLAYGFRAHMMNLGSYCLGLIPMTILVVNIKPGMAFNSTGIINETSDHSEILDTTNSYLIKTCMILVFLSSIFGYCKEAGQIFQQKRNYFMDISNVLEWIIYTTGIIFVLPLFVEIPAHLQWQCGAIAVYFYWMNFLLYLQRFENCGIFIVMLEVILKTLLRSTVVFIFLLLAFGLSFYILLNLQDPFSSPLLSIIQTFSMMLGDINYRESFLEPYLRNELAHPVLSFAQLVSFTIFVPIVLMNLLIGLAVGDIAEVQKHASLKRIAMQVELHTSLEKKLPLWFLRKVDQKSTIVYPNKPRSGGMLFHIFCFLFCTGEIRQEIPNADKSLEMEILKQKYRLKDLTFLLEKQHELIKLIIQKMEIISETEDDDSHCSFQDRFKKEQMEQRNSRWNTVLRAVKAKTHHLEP

Regarding `C=CCN=C=S` [Allyl Isothiocyanate, reference compound], the “Receptor Activity TRPA1” value at human TRPA1 (control agonist at 50 microMolar (reference = 100%)) was 100%.
Turning to `COc1cc(CNC(=O)CCCC/C=C/C(C)C)ccc1O` [Capsaicin, reference compound], at human TRPV1 (control agonist at 350 nanoMolar (reference = 100%)), the “Receptor Activity TRPV1” value turned out to be 100%.
Turning to `CC(C)[C@@H]1CC[C@@H](C)C[C@@H]1O` [Compound 1-neomenthol, 1-neomenthol], the cooling threshold result in assay [1] is “about 3,000 ppb”.
With `CC(C)[C@@H]1CC[C@@H](C)C[C@H]1C(=O)NCC(NC(=O)[C@@H](C)N)c1ccccc1` (stereo partly drawn) [Compound 28, Cyclohexane-carboxamide, N-[2-[[(2R)-2-amino-1-oxopropyl]amino]-2-phenylethyl]-5-methyl-2-(1-methylethyl)-, (1R,2S,5R)-*], the “mass efficiency relative to N-(4-cyanomethylphenyl)-p-menthanecarboxamide” value at human TRPM8 [2] (at a single concentration, TRPM8 activity vs WS5) was found to be 100 ×. In addition, the “Receptor Activity TRPM8” value at human TRPM8 [2] (test compound at 5.2E−6%, relative to WS5 control (30 microMolar), HEK 293 cells) stood at 130.42%; on human TRPM8 [2] (test compound at 5.2E−6%, relative to WS5 control (30 microMolar), HEK 293 cells, listed as compound 28), 130%. In addition, on human TRPA1 (setting [5]), the “Receptor Activity TRPA1” value is on record as 242.50%. In addition, the “Receptor Activity TRPV1” value on human TRPV1 (setting [6]) was found to be 104.50%. Further, the “sensation (cooling, warming, burning)” value in assay [3] is given as “cooling sensations”.
For `CC(C)[C@@H]1CC[C@@H](C)C[C@H]1C(=O)NCC(OCCN)c1ccccc1` (stereo partly drawn) [Compound 30, Cyclohexane-carboxamide, N-[2-(2-aminoethoxy)-2-phenylethyl]-5-methyl-2-(1-methylethyl)-, (1R,2S,5R)-*], the “Receptor Activity TRPM8” value at human TRPM8 [2] (test compound at 5.2E−5%, relative to WS5 control (30 microMolar), HEK 293 cells) was 109.70%. In addition, the “Receptor Activity TRPA1” value at human TRPA1 (setting [5]) is recorded as 38.18%. Moreover, at human TRPV1 (setting [6]), the “Receptor Activity TRPV1” value is recorded as 16.24%. Also, in assay [3], the “sensation (cooling, warming, burning)” value was “lack of sensation, cooling or warming”.
With `CC(C)[C@@H]1CC[C@@H](C)C[C@H]1C(=O)Nc1ccc(CC#N)cc1` [Compound 180, Cyclohexane-carboxamide, N-[4-(cyanomethyl)phenyl]-5-methyl-2-(1-methylethyl)-, (1R,2S,5R)-, reference compound], the “Receptor Activity TRPM8” value worked out at 108.80% at human TRPM8 [2] (test compound at 0.001%, relative to WS5 control (30 microMolar), HEK 293 cells) and 109% at human TRPM8 [2] (test compound at 0.001%, relative to WS5 control (30 microMolar), HEK 293 cells, listed as N-(4-cyanomethylphenyl)-p-menthanecarboxamide). The “Receptor Activity TRPA1” value on human TRPA1 (test compound at 0.001%, relative to Allyl Isothiocyanate control (50 microMolar), HEK 293 cells) is 68.02%. In addition, at human TRPV1 (test compound at 0.001%, relative to Capsaicin control (350 nanoMolar), HEK 293 cells), the “Receptor Activity TRPV1” value was found to be 0.01%.
As for `CSc1ccc(NC(=O)[C@@H]2C[C@H](C)CC[C@H]2C(C)C)c(NCCN)c1` [Compound 773, Cyclohexane-carboxamide N-[2-[(2-aminoethyl)amino]-4-(methylthio)phenyl]-5-methyl-2-(1-methylethyl)-(1R,2S,5R)-*], the “Receptor Activity TRPA1” value on human TRPA1 (setting [7]) was determined as 198.79%. At human TRPV1 (setting [8]), the “Receptor Activity TRPV1” value was found to be 92.07%. For the same compound, in assay [3], the “sensation (cooling, warming, burning)” value was “warming”.
Consider `CC(C)[C@@H]1CC[C@@H](C)C[C@H]1C(=O)Nc1ccc2ccccc2c1OCCN` [Compound 777, Cyclohexane-carboxamide, N-[1-(2-aminoethoxy)-2-naphthalenyl]-5-methyl-2-(1-methylethyl)-, (1R,2S,5R)-*], for which the “Receptor Activity TRPA1” value on human TRPA1 (setting [7]) is recorded as 173.88%. Further, the “Receptor Activity TRPV1” value at human TRPV1 (setting [8]) stood at 60.5%. For the same compound, the “sensation (cooling, warming, burning)” value in assay [3] is “burning”; in assay [3] (listed as test compound 777), “burning sensation”.
For the compound `CC(C)[C@@H]1CC[C@@H](C)C[C@H]1O` [L-menthol], the cooling threshold result in assay [1] is recorded as “about 800 ppb”.
On to `CCOC(=O)CNC(=O)C1CC(C)CCC1C(C)C` (stereo not shown) [WS5, N-ethoxycarbonylmethyl-ρ-menthan-3-carboxamide, reference compound], for which the “Receptor Activity TRPM8” value at human TRPM8 [2] (control agonist at 30 microMolar (reference = 100%)) is reported as 100%. Moreover, the “TRPM8 Time Course Activity 50 sec % of WS5” value on human TRPM8 [2] (dose 30 uM, 50 sec) came out at 100.0%; in the assay with human TRPM8 [4] (50 sec) it was 100.0%. For the same compound, the “TRPM8 Time Course Activity 50 sec” value at human TRPM8 [2] (dose 30 uM, fluorescence at 50 sec) is reported as 10059.7; in the assay on human TRPM8 [4] (fluorescence at 50 sec), 10059.7. Further, in the assay on human TRPM8 [4] (3 min), the “TRPM8 Time Course Activity 3 min % of WS5” value is reported as 100.0%. Besides, in the assay on human TRPM8 [4] (5 min), the “TRPM8 Time Course Activity 5 min % of WS5” value is on record as 100.0%. Moreover, the “TRPM8 Time Course Activity 10 min % of WS5” value with human TRPM8 [4] (10 min) is on record as 100.0%. The “TRPM8 Time Course Activity 3 min” value in the assay with human TRPM8 [4] (fluorescence at 3 min) was 9449.3. In the assay with human TRPM8 [4] (fluorescence at 5 min), the “TRPM8 Time Course Activity 5 min” value came to 9468.0. In addition, in the assay with human TRPM8 [4] (fluorescence at 10 min), the “TRPM8 Time Course Activity 10 min” value was found to be 9576.0.
Consider `CC(C)[C@@H]1CC[C@@H](C)C[C@@H]1O` [d-neomenthol], for which the cooling threshold entry in assay [1] is “about 25,000 ppb”.
